Data set [1] has as its system GPR120 null mice. Kind of data set: IVGTT in female GPR120 null mice. The format is in vivo, mouse. How it is done:
Lean female mice (body weight 20–25 g), were randomized on body weight and fasted 4 hours prior to the IVGTT. Metabolex-36 (100 mg/kg) was administered orally 60 min and AZ13581837 (35mg/kg) 30 min before the IVGTT ([…]). Control mice were given vehicle (0.5% HPMC, 0.1% Tween-80) at corresponding time points. The specificity of AZ13581837 was examined in IVGTT in GPR120 null mice. GPR120 agonist doses were selected to reach plasma levels of at least 10 times over the in vitro EC50 value to achieve maximal activation of GPR120 (S2 Appendix). Thirty minutes prior to the glucose load, the mice were anaesthetised (20 mg/kg fluanisone/0.8 mg/kg fentanyl (Hypnorm®, Janssen, Beerse, Belgium) and 10 mg/kg midazolam (Dormicum®, Hoffman-LaRoche, Basel, Switzerland)) to allow for rapid blood sampling. The mice were kept at a heating pad to maintain body temperature.
In the IVGTT, the acute insulin response (AIR) was calculated as the mean of suprabasal 1 and 5 min values, and the glucose elimination was quantified using the glucose elimination constant (KG) calculated as the slope of the logarithmic transformation of circulating glucose between 1 and 20 min after the glucose bolus. Multiple comparisons between the different groups were performed by one-way ANOVA. Tukey’s or Bonferroni’s post hoc test were used to calculate statistical differences between the groups. […]

For another data set, the target named is T1, mouse GPR120 (Mus musculus, UniProt Q7TMA4).
T1 construct: expressed in transfected cells
T1 sequence (Q7TMA4 1-361): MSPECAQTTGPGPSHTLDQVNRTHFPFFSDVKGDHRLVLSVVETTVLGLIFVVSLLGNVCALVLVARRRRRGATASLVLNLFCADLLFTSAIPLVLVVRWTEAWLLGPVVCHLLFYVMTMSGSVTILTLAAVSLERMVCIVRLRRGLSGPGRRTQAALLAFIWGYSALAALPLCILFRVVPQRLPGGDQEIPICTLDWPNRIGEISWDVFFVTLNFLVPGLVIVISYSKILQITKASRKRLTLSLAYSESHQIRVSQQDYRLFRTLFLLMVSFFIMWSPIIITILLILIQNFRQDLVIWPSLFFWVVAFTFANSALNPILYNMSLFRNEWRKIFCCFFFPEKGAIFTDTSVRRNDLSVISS
Kind of data set: cAMP production in CHO cells overexpressing mouse GPR120. The format is cell-based. The settings on record: data not shown.

A further data set addresses T2, human GPR120 (Homo sapiens, UniProt Q5NUL3).
T2 construct: expressed in transfected cells
T2 sequence (Q5NUL3 1-361): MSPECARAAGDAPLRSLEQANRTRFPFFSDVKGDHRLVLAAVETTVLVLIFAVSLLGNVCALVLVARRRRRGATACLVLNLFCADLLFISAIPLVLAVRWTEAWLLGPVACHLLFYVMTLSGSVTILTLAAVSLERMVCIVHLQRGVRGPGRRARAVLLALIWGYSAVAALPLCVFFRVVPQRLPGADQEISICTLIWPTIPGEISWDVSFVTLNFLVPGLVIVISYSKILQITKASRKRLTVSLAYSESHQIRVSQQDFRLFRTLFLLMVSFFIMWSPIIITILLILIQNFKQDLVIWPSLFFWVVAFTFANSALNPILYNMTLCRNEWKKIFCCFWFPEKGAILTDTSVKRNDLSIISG
Description: DMR (dynamic mass redistribution) assay in CHO-hGPR120 cells. In kind it is cell-based. The settings on record: for DMR response after Gαs inhibition: CHO-hGPR120 cells treated with CTX; for DMR response after Gαi inhibition: CHO-hGPR120 cells treated with PTX; for DMR response after Gαq inhibition: CHO-hGPR120 cells treated with QIC; for EC50: mean ± SEM.

Data set [2] deals with control CHO cells. Description: cAMP assay in control CHO cells. In kind it is cell-based, Chinese hamster. As for the experimental part:
CHO-hGPR120 or CHO cells in HBSS (Invitrogen), 20 mM HEPES (Invitrogen), pH 7.4, 0.01% BSA, 1.5 mM 3-isobutyl-1-methylxanthine (Sigma) and d2-labeled cAMP (CisBio) were incubated with GPR120 agonists (1% DMSO) for 45 min at room temperature in white small-volume 384-well plates (Greiner). The reaction was terminated by addition of conjugate and lysis buffer (CisBio) supplemented with anti-cAMP Cryptate (CisBio).

Data set [3] relates to control CHO cells. Description: DMR assay in control CHO cells. The settings on record: control CHO cells (empty vector). The format is cell-based, Chinese hamster. How it is done:
DMR (dynamic mass redistribution) was measured by resonant waveguide grating (RWG) using an Epic biosensor (Corning). CHO-hGPR120, CHO-mGPR120 and CHO cells in DMEM/F-12 (Invitrogen) were cultured in fibronectin coated 384-well Epic plates (Corning) at 37°C, 95% humidity and 5% CO2 for 5 hours with 10% FBS (Sigma), followed by 19 hours without FBS. CHO-hGPR40 cells were cultured at 37°C, 95% humidity and 5% CO2 for 20–24 hours in Ham’s F-12 Nutrient Mix with GlutaMAX (Invitrogen) supplemented with Non-Essential Amino Acids (Gibco) and 10% FBS (Sigma) in fibronectin coated 384-well Epic plates (Corning). Following the incubations culture media was replaced with HBSS (Invitrogen), 20 mM HEPES (Invitrogen), pH 7.4 and 1% DMSO and equilibrated to 26°C in the Epic for thirty min before addition of agonists and detection of DMR.

A short description of data set [4]: Pharmacokinetic properties. In kind it is in vivo, mice. The note with it: insufficient for chronic treatment.
The subject of a further data set is mouse islets. The arrangement: method as in PMID 24663807. The note with it: cited from earlier work.
Data set [5] concerns GPR120 null mice. Description: OGTT in male GPR120 null mice. In kind it is in vivo, mouse. As for the experimental part:
OGTT tests were performed in lean male mice (body weight 27-32g), randomized on body weight, fasted for 16 hours. An oral glucose load (2 g/kg) was administered 30 min (AZ13581837, 7 and 18 mg/kg) or 60 min (Metabolex-36, 10, 30 and 100 mg/kg) after oral dosing with the GPR120 agonists and blood glucose was measured at -30, 0, 10, 25, 40, 60 and 90 min post glucose administration. The specificity of Metabolex-36 was examined in male GPR120 null mice. The administration time for the GPR120 agonists was optimized depending on the pharmacokinetic profile of each compound, in order to maximize the plasma exposure of the compounds during the experiments.

In general, EC50 refers to the concentration giving half of the maximal effect.

As for `C#Cc1cc(Oc2cccnc2)cc(N2Cc3ccccc3S2(=O)=O)c1` [AZ13581837, 2-(3-ethynyl-5-(3-pyridyloxy)phenyl)-3H-1,2-benzothiazole 1,1-dioxide], in the data set on GPR120 null mice [1] (IVGTT), the “Glucose elimination in GPR120 null mice” value is on record as “no effect”. Besides, in the data set on GPR120 null mice [1] (vs vehicle of same genotype), the “Acute insulin secretion in GPR120 null mice” value is on record as “no effect”. For the same compound, the “Activation or inhibition of cAMP production in CHO cells overexpressing mouse GPR120” value on mouse GPR120 is “unable to detect”. Besides, at human GPR120, the “DMR response after Gαs inhibition” value is recorded as “partly blocked”, the “DMR response after Gαi inhibition” value is recorded as “did not result in any significant decrease” and the “DMR response after Gαq inhibition” value was “only partly reduced”. Also, the “Potency relative to Metabolex-36 in DMR response” value at human GPR120 (CHO-hGPR120 cells, fold more potent than Metabolex-36) was “about 100 fold”. The compound also returned a half-maximal effective concentration (EC50) on human GPR120 (CHO-hGPR120 cells) of 5.2 ± 0.6 nM. Further, in the data set on control CHO cells [2], the “cAMP levels in control CHO cells” value is given as “no increase”. Moreover, the “DMR response in control CHO cells” value in the data set with control CHO cells [3] is “without activity”. In addition, the “Pharmacokinetic properties (half-life)” value in data set [4] is given as “short half-life”.

Take “3-(3,5-difluoro-4-((3-methyl-1-phenyl-1H-pyrazol-5-yl)methoxy)phenyl)-2-methylpropanoic acid [Metabolex-36]”: the “Activation or inhibition of cAMP production in CHO cells overexpressing mouse GPR120” value on mouse GPR120 is on record as “unable to detect”. In addition, on human GPR120, the “DMR response after Gαs inhibition” value is given as “partly blocked”, the “DMR response after Gαi inhibition” value is “did not result in any significant decrease” and the “DMR response after Gαq inhibition” value is reported as “only partly reduced”. This compound came in with an EC50 at human GPR120 (CHO-hGPR120 cells) of 570 ± 150 nM. In addition, the “Somatostatin secretion in vitro from mouse islets” value in the data set on mouse islets is “reduce somatostatin secretion”. Also, the “cAMP levels in control CHO cells” value in the data set with control CHO cells [2] is on record as “no increase”. Besides, in the data set on control CHO cells [3], the “DMR response in control CHO cells” value was “without activity”. Also, the “Effect on oral glucose tolerance in GPR120 null mice” value in the data set with GPR120 null mice [5] is recorded as “no effect”. The “Pharmacokinetic properties (half-life)” value in data set [4] is reported as “short half-life”.

The record behind these values is publication PMC5716539, “The acute glucose lowering effect of specific GPR120 activation in mice is mainly driven by glucagon-like peptide 1” (PLoS ONE, 2017).
